The source of these data is US20260062426A1, “CYCLIN DEPENDENT KINASE DEGRADERS AND METHODS OF USE THEREOF” (Differentiated Therapeutics Inc, priority 2023, published 2026).

Common to all, as to assay type: cell-based
The target of one experiment is T1, CDK9 (Homo sapiens, UniProt P50750).
T1 construct: host or cells: HEK293
The experiment can be described thus: CDK9 HIBIT PQ (protein quantification), degradation. As to conditions: for Dmax: Max = Maximum; for DC50: PQ = Protein Quantification. In outline: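 CDK9 protein was read by HiBiT assay in treated HEK293 cells carrying HiBiT-tagged CDK9, seeded at 1.6×10^5 cells/well in 50 uL in 384-well plates and incubated overnight at 37° C and 5% CO2. Controls were 0.1% DMSO-treated cells (high) and culture medium only (low). Maximal degradation, Dmax and DC50 were calculated from these readings.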

The target of a further experiment is T2, CCNE1 (Homo sapiens, UniProt P24864+P24941).
T2 construct: host or cells: HEK293
Nature of the experiment: CCNE1 HIBIT PQ (protein quantification), degradation. As to conditions: for CCNE1 HIBIT PQ Max (%): Max = Maximum; for DC50: PQ = Protein Quantification. In outline:
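HEK293 cells with HiBiT-tagged CCNE1 were cultured in EMEM containing 10% FBS, plated at 1.6×10⁵ cells/well in 50 uL in 384-well plates and left overnight at 37° C with 5% CO₂. After 6 hours of compound exposure, a HiBiT assay measured CCNE1 protein, with 0.1% DMSO-treated cells as the high control and medium alone as the low control. DC50 and maximal degradation came from these readings.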

The target of the next experiment is T3, CDK2 (Homo sapiens, UniProt P24941).
T3 construct: host or cells: HEK293
Nature of the experiment: CDK2 HIBIT PQ (protein quantification), degradation. As to conditions: for CDK2 HIBIT PQ Max (%): Max = Maximum; for DC50: PQ = Protein Quantification. In outline:
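After overnight incubation at 37° C and 5% CO2 in 384-well plates (1.6×10^5 cells/well, 50 uL, DMEM with 10% FBS), HEK293 cells with HiBiT-tagged CDK2 were treated with compound for 6 hours. Detection used 20 μL of Nano-Glo HiBiT lytic reagent with LgBiT protein, 20 minutes of shaking at room temperature and an EnVision reading, with 0.1% DMSO as high control and medium alone as low control. These readings were the basis for DC50 and maximal degradation.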

T1 sequence (P50750 whole entry): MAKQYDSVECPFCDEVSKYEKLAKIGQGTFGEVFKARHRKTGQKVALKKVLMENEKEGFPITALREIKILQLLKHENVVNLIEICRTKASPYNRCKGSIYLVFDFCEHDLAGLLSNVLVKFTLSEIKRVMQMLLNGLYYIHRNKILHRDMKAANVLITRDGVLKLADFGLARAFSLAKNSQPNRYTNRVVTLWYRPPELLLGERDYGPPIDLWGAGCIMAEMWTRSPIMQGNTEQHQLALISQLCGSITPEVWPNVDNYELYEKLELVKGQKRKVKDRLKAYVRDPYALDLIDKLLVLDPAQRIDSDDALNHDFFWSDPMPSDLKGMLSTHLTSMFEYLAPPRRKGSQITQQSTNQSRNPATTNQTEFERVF

With `CC(C)Oc1c(-c2cn[nH]c2)ncn2nc(Nc3ccc(S(=O)(=O)c4cccc(CN5CCN(c6ccc7c(N8CCC(=O)NC8=O)nn(C)c7c6)CC5)c4)cc3F)nc12` [Compound 38], at CDK9, the Dmax (as a rule, the greatest extent of degradation seen) is 63% and it took 24 nM to reach half-maximal degradation (DC50). Also, at CCNE1, the “CCNE1 HIBIT PQ Max (%)” value is 55% and half-maximal degradation (DC50) was put at 5.76 nM. Besides, on CDK2, the “CDK2 HIBIT PQ Max (%)” value turned out to be 96% and the DC50 (as a rule, the concentration at which degradation of the target reaches its halfway point) came out at 2.3 nM.
With `CC(C)Oc1c(-c2cn[nH]c2)ncn2nc(N[C@H]3CCN(S(=O)(=O)c4cccc(CN5CCN(c6ccc7c(N8CCC(=O)NC8=O)nn(C)c7c6)CC5)c4)C[C@H]3C)nc12` [Compound 40], on CDK9, the Dmax was determined as 103% and the DC50 came out at 16.7 nM. On CCNE1, the “CCNE1 HIBIT PQ Max (%)” value is 89% and the DC50 came out at 8.91 nM. On CDK2, the “CDK2 HIBIT PQ Max (%)” value is on record as 96% and the DC50 came out at 3.6 nM.
As to `CC(C)Oc1c(-c2cn[nH]c2)ncn2nc(Nc3ccc(S(=O)(=O)c4cccc(CN5CCN(c6ccc7c(N8CCC(=O)NC8=O)nn(C)c7c6)C6CC65)c4)cc3F)nc12` (centres unmarked) [Compound 44], the Dmax at CDK9 was 15%. Besides, at CCNE1, the “CCNE1 HIBIT PQ Max (%)” value was determined as 39%. Further, on CDK2, the “CDK2 HIBIT PQ Max (%)” value was determined as 92% and the DC50 was determined as 3.5 nM.
As to `CC(C)Oc1c(-c2cn[nH]c2)ncn2nc(Nc3ccc(S(=O)(=O)c4cccc(CN5C6CC5CN(c5ccc7c(N8CCC(=O)NC8=O)nn(C)c7c5)C6)c4)cc3F)nc12` [Compound 45], at CDK9, the Dmax is -10%. Further, the “CCNE1 HIBIT PQ Max (%)” value on CCNE1 is recorded as 33%. Further, on CDK2, the “CDK2 HIBIT PQ Max (%)” value came out at 85% and the DC50 turned out to be 4.3 nM.
`CC(C)Oc1c(-c2cn[nH]c2)ncn2nc(Nc3ccc(S(=O)(=O)c4cccc(CN5C6CCC5CN(c5ccc7c(N8CCC(=O)NC8=O)nn(C)c7c5)C6)c4)cc3F)nc12` [Compound 46]: at CDK9, the Dmax stood at 71% and the DC50 is 92.1 nM. On CCNE1, the “CCNE1 HIBIT PQ Max (%)” value was determined as 48%. For the same molecule, at CDK2, the “CDK2 HIBIT PQ Max (%)” value was 95% and the DC50 was found to be 3.6 nM.
With `CC(C)Oc1c(-c2cn[nH]c2)ncn2nc(Nc3ccc(S(=O)(=O)c4cccc(CN5CCN(c6ccc7c(N8CCC(=O)NC8=O)nn(C)c7c6)CC5(C)C)c4)cc3F)nc12` [Compound 47], at CDK9, the Dmax worked out at 74% and the DC50 was determined as 136 nM. Besides, at CCNE1, the “CCNE1 HIBIT PQ Max (%)” value is on record as 72% and the DC50 amounted to 55 nM. Moreover, on CDK2, the “CDK2 HIBIT PQ Max (%)” value is reported as 97% and half-maximal degradation (DC50) was put at 6.2 nM.
For `CC(C)Oc1c(-c2cn[nH]c2)ncn2nc(Nc3ccc(S(=O)(=O)c4cccc(CN5CC6CC5CN6c5ccc6c(N7CCC(=O)NC7=O)nn(C)c6c5)c4)cc3F)nc12` (centres unmarked) [Compound 48], at CDK9, the Dmax turned out to be 2%. The “CCNE1 HIBIT PQ Max (%)” value at CCNE1 is listed as 21%. Moreover, at CDK2, the “CDK2 HIBIT PQ Max (%)” value is listed as 79% and half-maximal degradation (DC50) was put at 3.1 nM.
With `CC(C)Oc1c(-c2cn[nH]c2)ncn2nc(N[C@H]3CCN(S(=O)(=O)c4cccc(CN5CCN(c6ccc7c(N8CCC(=O)NC8=O)nn(C)c7c6)C(C)C5)c4)C[C@H]3C)nc12` (some centres unmarked) [Compound 49], at CDK9, the Dmax was found to be 104% and the DC50 turned out to be 11.6 nM. For the same molecule, on CCNE1, the “CCNE1 HIBIT PQ Max (%)” value is 96% and the DC50 came out at 9.43 nM. At CDK2, the “CDK2 HIBIT PQ Max (%)” value was 98% and the DC50 turned out to be 2.2 nM.
Take `CCC1CN(c2ccc3c(N4CCC(=O)NC4=O)nn(C)c3c2)CCN1Cc1cccc(S(=O)(=O)N2CC[C@H](Nc3nc4c(OC(C)C)c(-c5cn[nH]c5)ncn4n3)[C@H](C)C2)c1` (some centres unmarked) [Compound 50]: on CDK9, the Dmax came to 96% and the DC50 stood at 23.5 nM. In addition, on CCNE1, the “CCNE1 HIBIT PQ Max (%)” value is given as 90% and the DC50 was found to be 15.2 nM. Besides, on CDK2, the “CDK2 HIBIT PQ Max (%)” value came to 97% and the DC50 turned out to be 2.8 nM.
For `CC(C)Oc1c(-c2cn[nH]c2)ncn2nc(N[C@H]3CCN(S(=O)(=O)c4cccc(CN5CCN(c6ccc7c(N8CCC(=O)NC8=O)nn(C)c7c6)CC5C)c4)C[C@H]3C)nc12` (some centres unmarked) [Compound 51], at CDK9, the Dmax came to 100% and the DC50 was 20.2 nM. Moreover, at CCNE1, the “CCNE1 HIBIT PQ Max (%)” value is reported as 92% and it took 9.29 nM to reach half-maximal degradation (DC50). Besides, on CDK2, the “CDK2 HIBIT PQ Max (%)” value is on record as 98% and the DC50 worked out at 2.4 nM.
